Test results from PubChem BioAssay (NCI).
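Where inhibition never reached the appropriate level, the endpoint shown equals the highest concentration tested. Otherwise, values were interpolated linearly from a five-concentration, 48-hour dose response in 96-well plates. GI50 = concentration required for 50% inhibition of growth. The concentration for full growth arrest is given as TGI.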

Columns and labels:
Assay in all cases: NCI tumour cell line growth inhibition, 48 h
[1] = test system: HL-60(TB) leukemia
[2] = test system: TK-10 renal
[3] = test system: NCI-H226 lung
[4] = test system: CCRF-CEM leukemia
[5] = test system: SK-OV-3 ovarian
[6] = test system: UO-31 renal
[7] = test system: HCC-2998 colon
[8] = test system: SF-295 CNS
[9] = test system: M14 melanoma
[10] = test system: NCI-H522 lung

CCNC(=O)O[C@H]1CN[C@H](C#Cc2cc3ncnc(Nc4ccc(OCc5cccc(F)c5)c(Cl)c4)c3s2)C1
GI50 [1]: 5.71 µM | TGI [1]: > 19.4 µM | GI50 [2]: 0.198 µM | TGI [2]: 11.4 µM | GI50 [3]: 7.09 µM | TGI [3]: > 21.1 µM | GI50 [4]: 2.91 µM | TGI [4]: > 25 µM | GI50 [5]: 0.0299 µM | TGI [5]: > 25 µM | GI50 [6]: 1.49 µM | TGI [6]: > 18.4 µM | GI50 [7]: 4.91 µM | TGI [7]: 15.5 µM | GI50 [8]: 8.13 µM | TGI [8]: > 25 µM | GI50 [9]: > 22.6 µM | TGI [9]: > 25 µM | GI50 [10]: 0.371 µM | TGI [10]: 5.91 µM

Clc1ccc(C(n2cc(Br)cn2)n2cc(Br)cn2)cc1
TGI [1]: 56.6 µM | TGI [2]: 32 µM | TGI [3]: 22.5 µM | TGI [4]: 60.9 µM | TGI [5]: 60.9 µM | TGI [6]: 20 µM | TGI [7]: 31.8 µM | TGI [8]: 29.8 µM | TGI [9]: 35.2 µM | TGI [10]: 27.7 µM

CCOc1ccc2nc(NC(=O)C(=O)C(c3cnc4ccccc4n3)[N+](=O)[O-])sc2c1 (stereo not given)
TGI [1]: > 100 µM | TGI [2]: > 100 µM | TGI [3]: > 100 µM | TGI [4]: > 100 µM | TGI [5]: > 100 µM | TGI [6]: > 100 µM | TGI [7]: > 100 µM | TGI [8]: > 100 µM | TGI [9]: > 100 µM | TGI [10]: > 100 µM

O=C(OC[C@H]1O[C@H](OC(=O)c2cc(O)c(O)c(OC(=O)c3cc(O)c(O)c(O)c3)c2)[C@H](OC(=O)c2cc(O)c(O)c(OC(=O)c3cc(O)c(O)c(O)c3)c2)[C@@H](OC(=O)c2cc(O)c(O)c(OC(=O)c3cc(O)c(O)c(O)c3)c2)[C@@H]1OC(=O)c1cc(O)c(O)c(OC(=O)c2cc(O)c(O)c(O)c2)c1)c1cc(O)c(O)c(OC(=O)c2cc(O)c(O)c(O)c2)c1
GI50 [1]: 7.53 µM | TGI [1]: 23.5 µM | GI50 [2]: 7.66 µM | TGI [2]: > 25 µM | GI50 [3]: 3.23 µM | TGI [3]: 18 µM | GI50 [4]: 3.23 µM | TGI [4]: > 25 µM | GI50 [5]: 2.25 µM | TGI [5]: > 25 µM | GI50 [6]: 2.61 µM | TGI [6]: > 25 µM | GI50 [7]: 2.52 µM | TGI [7]: > 25 µM | GI50 [8]: 0.941 µM | TGI [8]: > 25 µM | GI50 [9]: 5.01 µM | TGI [9]: > 25 µM | GI50 [10]: 1.96 µM | TGI [10]: 7.68 µM

CCOC(=O)c1[nH]c(COC(C)=O)c2c1CCCCCCCCCC2
TGI [1]: > 100 µM | TGI [2]: > 100 µM | TGI [3]: > 100 µM | TGI [4]: > 100 µM | TGI [5]: > 100 µM | TGI [6]: > 100 µM | TGI [7]: > 100 µM | TGI [8]: > 100 µM | TGI [9]: > 100 µM | TGI [10]: > 100 µM

Cc1ncc(C(=O)Nc2ccc(CN3CCN(C)CC3)c(C(F)(F)F)c2)cc1C#Cc1cnc(N)cc1C#N
GI50 [1]: 0.481 µM | TGI [1]: 2.85 µM | GI50 [2]: 1.7 µM | TGI [2]: 3.83 µM | GI50 [3]: 0.263 µM | TGI [3]: 2.66 µM | GI50 [4]: 0.549 µM | TGI [4]: 3.2 µM | GI50 [5]: 0.401 µM | TGI [5]: 1.8 µM | GI50 [6]: 0.307 µM | TGI [6]: 1.33 µM | GI50 [7]: 1.11 µM | TGI [7]: 3.39 µM | GI50 [8]: 1.88 µM | TGI [8]: 3.98 µM | GI50 [9]: 0.049 µM | TGI [9]: 0.4 µM | GI50 [10]: 0.405 µM | TGI [10]: 3.24 µM

COC(=O)Nc1nc2ccc(Br)cc2[nH]1
TGI [1]: 90 µM | TGI [2]: > 100 µM | TGI [3]: > 100 µM | TGI [4]: > 100 µM | TGI [5]: 67.9 µM | TGI [6]: > 100 µM | TGI [7]: > 100 µM | TGI [8]: > 100 µM | TGI [9]: > 100 µM | TGI [10]: 32.8 µM

CC1OC(n2cc(F)c(=O)[nH]c2=O)C=CC1=O (stereo not given)
TGI [1]: 70.3 µM | TGI [2]: 30.7 µM | TGI [3]: 66.4 µM | TGI [4]: 53 µM | TGI [5]: 95.9 µM | TGI [6]: 30.3 µM | TGI [7]: 43.8 µM | TGI [8]: 31 µM | TGI [9]: 34.1 µM | TGI [10]: 23.2 µM
